In series [1] the test system is UCI101 ovarian cancer cells. As to the kind of experiment: Alamar Blue cell growth inhibition, UCI101. The series is classed as cell-based. As to conditions: UCI101, 48 hours. Summed up:
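UCI101 cells at 50% confluence treated 48 h in triplicate with compound (0–10 μM series) or 0.1% DMSO vehicle as 100% control. Alamar Blue added at 1/10 volume for 2 h; absorbance read at 570 and 600 nm, percent growth inhibition from the manufacturer's formula.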
On the technique in general: Resazurin is reduced to fluorescent resorufin, in cell work by metabolically active cells.

Series [2] has as its system MDA-MB231 breast cancer cells. As to the kind of experiment: Alamar Blue cell growth inhibition, MDA-MB231. Format: cell-based. As to conditions: based on previous IC50 data. Summed up: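 Cells at 50% confluence treated in triplicate for 48 hours with 0, 0.01, 0.03, 0.1, 0.3, 1.0, 3.0, 10 μM compound or 0.1% DMSO vehicle. Alamar Blue added at 1/10 volume for 2 hours, absorbance at 570 and 600 nm; percentage growth calculated against untreated cells using the extinction-coefficient formula.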

Series [3] has as its system human umbilical vein endothelial cells (HUVECs). As to the kind of experiment: HUVEC flow cytometry and tubulin staining. Format: cell-based. The following applies: 30 nM, 16 hours. The procedure: (a) Flow cytometry analysis. HUVECs were treated with 30 nM of stilbene 4a for 16 hours followed by staining with PI and subjected to flow cytometry analysis. A large subG0/1 population, representing apoptotic cells, appeared along with reverse of the G1/G2 ratio. (b) Immunofluorescent staining of the HUVECs with antibody against tubulin. Nuclei were counter-stained with DAPI. Stilbene 4a disrupted microtubules at a concentration of 30 nM or higher. Stilbene 4c disrupted microtubules at 100 nM.
In order to establish that stilbenes suppress tumor perfusion by damaging tumor endothelial cells, we first incubated human vascular endothelial cells (HUVECs) with various concentrations of stilbenes in vitro. After 24 hours of incubation, cells were processed for flow cytometry analysis with propidium iodide staining. Cells were also fixed with 2% paraformaldehyde and stained with anti-tubulin antibody to examine tubulin disruption and with DAPI to analyze nuclear fragmentation.
(In general: In flow cytometry, cells or beads pass a laser one at a time.)

For another series, the system named is UCI101 cells. As to the kind of experiment: cell cycle analysis (propidium iodide, FACScan), UCI101. Format: cell-based. The procedure: Cells were stained with propidium iodide and analyzed with FACScan. Both 5b at 3 μM and stilbene 4a at 30 nM induce a subG0/1 population that represents the dead population. At higher concentrations of either compound, nearly all cells are dead.
(a) In vitro sensitivity of UCI101 cells toward three potential stilbene prodrugs, 5a-c, was tested in 96-well plates using Alamar Blue™ assays to determine cell growth inhibition. […] (b) 5b induces cell cycle change and apoptosis in UCI101 cells. […] A subG0/1 population, representing apoptotic cells, appeared along with a decrease of the G1/G2 ratio after cells were treated with 3 μM 5b. […] (c) Cells treated with stilbene 4a and 5b were stained with phospho-histone 3B, a mitotic marker. The positive signals of phospho-histone 3B were shown in green and nuclei were stained with DAPI in blue. […] (d) In vivo efficacy of 5b compared with stilbene 4a. Nude mice were injected with UCI101 ovarian cancer cells and treated with 7 doses of 5b,c or stilbene 4a every 2-3 days. Tumor volume was calculated and plotted against days.

Series [4] is described as follows: water solubility of stilbene and carbamate prodrug (salts and free base). The series is classed as physicochemical. As to conditions: for solubility: water, 20 °C, 20° C. The protocol:
Stilbene prodrugs may be made by attaching to a stilbene derivative of interest (e.g. a stilbene derivative with anti-tumor activity), chemical groups (or moieties) that render the stilbene derivative more water soluble than before such a modification is carried out. By “water soluble” we mean that more than 20 mg compound can be fully dissolved in 1 mL of water. Further, the chemical groups that are attached to the stilbene derivative to make the derivative water soluble are labile (i.e. removable) in that, upon exposure to in vitro or in vivo hydrolyzing conditions, the chemical groups are removed or dissociated from the stilbene derivative by hydrolysis, releasing the active, anti-tumor form of the stilbene derivative. The chemical groups which are attached may themselves be biologically active, and are, at least, not biologically injurious to cells or mammals. […] As illustrated, morfolinoethyl-urea, morfolinoethyl-carbamate and triethylene glycol (TEG) groups (5a, 5b, 5c, respectively) may be used for this purpose.

Molecules are shown by their SMILES. Where two headings read alike, the source gives them in different places.

As usually defined, the solubility is how much of the substance goes into solution per volume. For the compound `COc1cc(/C=C\c2ccc(OC)c(N)c2)cc(OC)c1` [4a, (Z)-5-[2-(3,5-Dimethoxy-phenyl)-vinyl]-2-methoxy-phenylamine], in series [1], the “relative potency / activity” value is recorded as “about equal in their potency”. In addition, the “times less potent than CA4” value in series [2] was 10. Besides, the “apoptosis of HUVECs (flow cytometry)” value in series [3] is “induced a significant apoptotic population of subG0/1 cells”. In addition, the “cell cycle effect” value with UCI101 cells (4a at 30, 100 nM, 5b at 1, 3, 10 μM) is “induced G2/M cell cycle arrest and accumulation of the subG1/0 population”. Besides, the “concentration inducing a subG0/1 (dead) population” value in the series on UCI101 cells (24 hours) was determined as 30 nM. The “water solubility (in words)” value in series [4] is listed as “limited solubility”. Moreover, the solubility in series [4] (HCl salt, read-out: water solubility, x HCl) was 6000 µg/mL; in series [4] (free base, read-out: water solubility, Free base), below 1000 µg/mL; in series [4] (oxalate salt, read-out: water solubility, x (COOH)2) it was below 1000 µg/mL.

The values are drawn from US7781580B2, “Stilbene derivatives as new cancer therapeutic agents” (Virginia Commonwealth University, priority 2007, dated 2010).
